Measured values from patent publication US20150031674A1, “SERINE/THREONINE KINASE INHIBITORS” (GENENTECH, INC., priority 2013, published 2015).
pKi: −log10 of the molar value.

Target: human recombinant PAK1-KD protein (Homo sapiens, UniProt Q13153)
Experiment: PAK1-KD (Kinase Domain) IC50 Zlyte Assay (FRET peptide substrate phosphorylation)
Conditions: Z'-LYTE, Biological Example 1

Sequence of human recombinant PAK1-KD protein (Q13153 270-521 limits assumed): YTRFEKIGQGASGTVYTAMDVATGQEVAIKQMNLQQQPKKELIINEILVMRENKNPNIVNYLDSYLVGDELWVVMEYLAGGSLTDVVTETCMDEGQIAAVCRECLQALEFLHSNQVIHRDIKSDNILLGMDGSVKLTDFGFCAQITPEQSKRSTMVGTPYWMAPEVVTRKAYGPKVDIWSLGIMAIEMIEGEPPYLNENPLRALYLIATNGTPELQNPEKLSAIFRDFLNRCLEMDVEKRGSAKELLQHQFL

Row | SMILES | pKi
1 | CCNc1ncc2cc(-c3ccc(-c4cncc(C)n4)cc3Cl)c(=O)n(CC3CCN(CCO)CC3)c2n1 [Example I-39, 6-(2-Chloro-4-(6-methylpyrazin-2-yl)phenyl)-2-(ethylamino)-8-((1-(2-hydroxyethyl)piperidin-4-yl)methyl)pyrido[2,3-d]pyrimidin-7(8H)-one] | 7.40
2 | CNc1ncc2cc(-c3ccc(-c4cccc(C)n4)cc3Cl)c(=O)n(CCOCCN)c2n1 [Example I-96, 8-[2-(2-Aminoethoxy)ethyl]-[2-chloro-4-(6-methyl-2-pyridyl)phenyl]-2-(methylamino)pyrido[2,3-d]pyrimidin-7-one] | 8.85
3 | CNc1ncc2cc(-c3ccc(-c4cccc(C)n4)cc3C)c(=O)n(C[C@@H]3CNCCO3)c2n1 [Example I-171, 6-(2-methyl-4-(6-methylpyridin-2-yl)phenyl)-2-(methylamino)-8-[[(2S)-morpholin-2-yl]methyl]pyrido[2,3-d]pyrimidin-7(8H)-one] | 8.30
4 | CNc1ncc2cc(-c3ccc(-c4cccc(C)n4)cc3Cl)c(=O)n(CC3CNCCS3(=O)=O)c2n1 (single isomer, unassigned) [I-197 Isomer A, 6-[2-chloro-4-(6-methyl-2-pyridyl)phenyl]-8-[(1,1-dioxo-1 4-thiazinan-2-yl)methyl]-2-(methylamino)pyrido[2,3-d]pyrimidin-7-one] | 7.79
5 | CCNc1ncc2cc(-c3ccc(-c4cccc(C)n4)cc3Cl)c(=O)n(C3COC4(CCNC4)C3)c2n1 (stereo not drawn) [Example I-121, 6-[2-Chloro-4-(6-methyl-2-pyridyl)phenyl]-2-(ethylamino)-8-(1-oxa-7-azaspiro[4.4]nonan-3-yl)pyrido[2,3-d]pyrimidin-7-one] | 8.43
6 | CCNc1ncc2cc(-c3ccc(-c4cncc(C)n4)cc3Cl)c(=O)n(CC[C@@H]3[C@H]4CNC[C@@H]34)c2n1 [Example I-65, 8-(2-((1R,5S,6s)-3-Azabicyclo[3.1.0]hexan-6-yl)ethyl)-6-(2-chloro-4-(6-methylpyrazin-2-yl)phenyl)-2-(ethylamino)pyrido[2,3-d]pyrimidin-7(8H)-one] | 7.84
7 | CCNc1ncc2cc(-c3ccc(-c4cncc(C)n4)cc3Cl)c(=O)n(CCN3CCNCC3=O)c2n1 [Example I-90, 6-[2-Chloro-4-(6-methylpyrazin-2-yl)phenyl]-2-(ethylamino)-8-[2-(2-oxopiperazin-1-yl)ethyl]pyrido[2,3-d]pyrimidin-7-one] | 6.49
8 | CNc1ncc2cc(-c3ccc(-c4cccc(C)n4)cc3Cl)c(=O)n(CCC3CNCCO3)c2n1 (single isomer, unassigned) [Example I-124, 6-(2-Chloro-4-(6-methylpyridin-2-yl)phenyl)-2-(methylamino)-8-(2-(morpholin-2-yl)ethyl)pyrido[2,3-d]pyrimidin-7(8H)-one] | 8.82
9 | CNc1ncc2cc(-c3ccc(-c4cncc(C)n4)cc3Cl)c(=O)n(CC[C@H]3OC[C@@H](N)CO3)c2n1 [Example I-172, 8-[2-(5-amino-1,3-dioxan-2-yl)ethyl]-6-[2-chloro-4-(6-methylpyrazin-2-yl)phenyl]-2-(methylamino)pyrido[2,3-d]pyrimidin-7-one] | 7.92
10 | Cc1cccc(-c2ccc(-c3cc4cnc(NC5COC5)nc4n(CCCC(N)=O)c3=O)c(C)c2)n1 [Example I-71, 4-[6-[2-Methyl-4-(6-methyl-2-pyridyl)phenyl]-2-(oxetan-3-ylamino)-7-oxo-pyrido[2,3-d]pyrimidin-8-yl]butanamide] | 7.95
11 | CNc1ncc2cc(-c3ccc(-c4cccc(C)n4)cc3C)c(=O)n(C[C@H]3OC[C@H](N)CO3)c2n1 [Example I-170, 8-[(5-Amino-1,3-dioxan-2-yl)methyl]-2-(methylamino)-6-[2-methyl-4-(6-methyl-2-pyridyl)phenyl]pyrido[2,3-d]pyrimidin-7-one] | 8.28
12 | CNc1ncc2cc(-c3ccc(-c4cccc(C)n4)cc3Cl)c(=O)n(CCC3CNCCS3(=O)=O)c2n1 (stereo not drawn) [Example I-202, 6-[2-chloro-4-(6-methyl-2-pyridyl)phenyl]-8-[2-(1,1-dioxo-1 4-thiazinan-2-yl)ethyl]-2-(methylamino)pyrido[2,3-d]pyrimidin-7-one] | 8.15
